From article PMC11620503 (Antimicrobial Agents and Chemotherapy, 2024)
Converted amounts (≈) assume the structure as drawn. Where two headings read alike, the source gives them in different places.

Tests used:
Test in all cases: MIC, broth microdilution
[1] = system: 207 Enterobacterales including carbapenem-resistant isolates; format: cell-based
[2] = system: MEM-nonsusceptible Enterobacterales; format: cell-based
[3] = system: serine-carbapenemase-producing isolates (Enterobacterales); format: cell-based
[4] = system: MBL-producing isolates (Enterobacterales); format: cell-based
[5] = system: 55 isolates of A. baumannii; format: cell-based, Acinetobacter baumannii; settings: Acinetobacter baumannii (55); for CLSI MIC interpretation I (intermediate) / CLSI MIC interpretation R (resistant) / CLSI MIC interpretation S (susceptible): CLSI breakpoints, marked c: breakpoints for β-lactam alone; for MIC50 / MIC90: fixed concentration (μg/mL) in label; for MIC50: read-out: MIC50; for MIC90: read-out: MIC90
96 P. aeruginosa = format: cell-based, Pseudomonas aeruginosa; settings: Pseudomonas aeruginosa (96); for CLSI MIC interpretation I (intermediate) / CLSI MIC interpretation R (resistant) / CLSI MIC interpretation S (susceptible): CLSI breakpoints, marked c: breakpoints for β-lactam alone; for MIC50 / MIC90: fixed concentration (μg/mL) in label; for MIC50: read-out: MIC50; for MIC90: read-out: MIC90
[6] = system: MEM-, imipenem/relebactam-, and ceftolozane/tazobactam-nonsusceptible P. aeruginosa; format: cell-based, Pseudomonas aeruginosa; settings: for CLSI MIC interpretation I (intermediate) / CLSI MIC interpretation R (resistant) / CLSI MIC interpretation S (susceptible): marked c: breakpoints for β-lactam alone; for MIC50 / MIC90: Pseudomonas aeruginosa; for MIC50: read-out: MIC50; for MIC90: read-out: MIC90
[7] = system: MEM-nonsusceptible Enterobacterales with serine-carbapenemases; format: cell-based
[8] = system: MEM-nonsusceptible Enterobacterales with metallo-carbapenemases; format: cell-based
[9] = All Enterobacterales (207), cefiderocol 205 isolates, CLSI breakpoints, marked c: breakpoints for β-lactam alone, tigecycline: FDA breakpoints
[10] = MEM-nonsusceptible Enterobacterales (127), cefiderocol 126 isolates, CLSI breakpoints, marked c: breakpoints for β-lactam alone, tigecycline: FDA breakpoints
[11] = Enterobacterales with serine-carbapenemases (80), CLSI breakpoints, marked c: breakpoints for β-lactam alone, tigecycline: FDA breakpoints
[12] = Enterobacterales with metallo-carbapenemases (74), cefiderocol 73 isolates, CLSI breakpoints, marked c: breakpoints for β-lactam alone, tigecycline: FDA breakpoints
[13] = Imipenem/relebactam-nonsusceptible Pseudomonas aeruginosa (43), CLSI breakpoints
[14] = MEM-nonsusceptible Pseudomonas aeruginosa (76), CLSI breakpoints
[15] = Imipenem/relebactam-nonsusceptible Pseudomonas aeruginosa (43), fixed concentration (μg/mL) in label
[16] = MEM-nonsusceptible Pseudomonas aeruginosa (76), fixed concentration (μg/mL) in label
[17] = MEM-nonsusceptible Enterobacterales with serine-carbapenemases (58), CLSI breakpoints, marked c: breakpoints for β-lactam alone, tigecycline: FDA breakpoints
[18] = MEM-nonsusceptible Enterobacterales with metallo-carbapenemases (55), cefiderocol 54 isolates, CLSI breakpoints, marked c: breakpoints for β-lactam alone, tigecycline: FDA breakpoints
[19] = Ceftolozane/tazobactam-nonsusceptible Pseudomonas aeruginosa (45), CLSI breakpoints
[20] = Ceftolozane/tazobactam-nonsusceptible Pseudomonas aeruginosa (45), fixed concentration (μg/mL) in label

NCC[C@H](O)C(=O)N[C@@H]1C[C@H](N)[C@@H](O[C@H]2O[C@H](CN)[C@@H](O)[C@H](O)[C@H]2O)[C@H](O)[C@H]1O[C@H]1O[C@H](CO)[C@@H](O)[C@H](N)[C@H]1O [Amikacin]
CLSI MIC interpretation I (intermediate) [1, 9]: 6.3%
CLSI MIC interpretation R (resistant) [1, 9]: 36.7%
CLSI MIC interpretation S (susceptible) [1, 9]: 57%
MIC50 ([1]; read-out: MIC50): 4 µg/mL (≈ 6.83 µM)
MIC90 ([1]; read-out: MIC90): > 64 µg/mL
CLSI MIC interpretation I (intermediate) [2, 10]: 7.9%
CLSI MIC interpretation R (resistant) [2, 10]: 52%
CLSI MIC interpretation S (susceptible) [2, 10]: 40.2%
MIC50 ([2]; MEM-nonsusceptible Enterobacterales (127), cefiderocol 126 isolates, fixed concentration (μg/mL) in label, read-out: MIC50): 16 µg/mL (≈ 27.3 µM)
MIC90 ([2]; MEM-nonsusceptible Enterobacterales (127), cefiderocol 126 isolates, fixed concentration (μg/mL) in label, read-out: MIC90): > 64 µg/mL
CLSI MIC interpretation I (intermediate) [3, 11]: 8.8%
CLSI MIC interpretation R (resistant) [3, 11]: 37.5%
CLSI MIC interpretation S (susceptible) [3, 11]: 53.8%
MIC50 ([3]; Enterobacterales with serine-carbapenemases (80), fixed concentration (μg/mL) in label, read-out: MIC50): 4 µg/mL (≈ 6.83 µM)
MIC90 ([3]; Enterobacterales with serine-carbapenemases (80), fixed concentration (μg/mL) in label, read-out: MIC90): 64 µg/mL (≈ 109 µM)
CLSI MIC interpretation I (intermediate) [4, 12]: 5.4%
CLSI MIC interpretation R (resistant) [4, 12]: 52.7%
CLSI MIC interpretation S (susceptible) [4, 12]: 41.9%
MIC50 ([4]; Enterobacterales with metallo-carbapenemases (74), cefiderocol 73 isolates, fixed concentration (μg/mL) in label, read-out: MIC50): 16 µg/mL (≈ 27.3 µM)
MIC90 ([4]; Enterobacterales with metallo-carbapenemases (74), cefiderocol 73 isolates, fixed concentration (μg/mL) in label, read-out: MIC90): > 64 µg/mL
CLSI MIC interpretation I (intermediate) [5]: 14.5%
CLSI MIC interpretation R (resistant) [5]: 56.4%
CLSI MIC interpretation S (susceptible) [5]: 29.1%
MIC50 [5]: 64 µg/mL (≈ 109 µM)
MIC90 [5]: > 64 µg/mL
CLSI MIC interpretation I (intermediate) (96 P. aeruginosa): 7.3%
CLSI MIC interpretation R (resistant) (96 P. aeruginosa): 29.2%
CLSI MIC interpretation S (susceptible) (96 P. aeruginosa): 63.5%
MIC50 (96 P. aeruginosa): 8 µg/mL (≈ 13.7 µM)
MIC90 (96 P. aeruginosa): > 64 µg/mL
CLSI MIC interpretation (%) I ([6]; I, intermediate (including susceptible dose-dependent), CLSI breakpoints, last subgroup of Table 2): 11.1%
CLSI MIC interpretation I (intermediate) [6, 13]: 9.3%
CLSI MIC interpretation R (resistant) [6, 13]: 58.1%
CLSI MIC interpretation S (susceptible) [6, 13]: 32.6%
CLSI MIC interpretation I (intermediate) [6, 14]: 7.9%
CLSI MIC interpretation R (resistant) [6, 14]: 36.8%
CLSI MIC interpretation S (susceptible) [6, 14]: 55.3%
MIC50 [6, 15]: 64 µg/mL
MIC90 [6, 15]: > 64 µg/mL
MIC50 [6, 16]: 8 µg/mL (≈ 13.7 µM)
MIC90 [6, 16]: > 64 µg/mL
MIC50 ([6]; Table 2, broth microdilution): 64 µg/mL (≈ 109 µM)
MIC90 ([6]; Table 2, broth microdilution): > 64 µg/mL
CLSI MIC interpretation (%) R ([6]; R, resistant, CLSI breakpoints, last subgroup of Table 2): 55.6%
CLSI MIC interpretation (%) S ([6]; S, susceptible, CLSI breakpoints, last subgroup of Table 2): 33.3%
CLSI MIC interpretation I (intermediate) [7, 17]: 10.3%
CLSI MIC interpretation R (resistant) [7, 17]: 44.8%
CLSI MIC interpretation S (susceptible) [7, 17]: 44.8%
MIC50 ([7]; MEM-nonsusceptible Enterobacterales with serine-carbapenemases (58), fixed concentration (μg/mL) in label, read-out: MIC50): 8 µg/mL (≈ 13.7 µM)
MIC90 ([7]; MEM-nonsusceptible Enterobacterales with serine-carbapenemases (58), fixed concentration (μg/mL) in label, read-out: MIC90): 64 µg/mL (≈ 109 µM)
CLSI MIC interpretation I (intermediate) [8, 18]: 5.5%
CLSI MIC interpretation R (resistant) [8, 18]: 65.5%
MIC50 ([8]; MEM-nonsusceptible Enterobacterales with metallo-carbapenemases (55), cefiderocol 54 isolates, fixed concentration (μg/mL) in label, read-out: MIC50): 32 µg/mL (≈ 54.6 µM)
MIC90 ([8]; MEM-nonsusceptible Enterobacterales with metallo-carbapenemases (55), cefiderocol 54 isolates, fixed concentration (μg/mL) in label, read-out: MIC90): > 64 µg/mL

C[C@@H](O)[C@H]1C(=O)N2C(C(=O)O)=C(SCCN=CN)C[C@H]12 [Imipenem]
CLSI MIC interpretation I (intermediate) [1]: 7.7%
CLSI MIC interpretation R (resistant) [1]: 55.6%
CLSI MIC interpretation S (susceptible) [1]: 36.7%
MIC50 [1]: 4 µg/mL (≈ 13.4 µM)
MIC90 [1]: 32 µg/mL (≈ 107 µM)
CLSI MIC interpretation I (intermediate) [2]: 10.2%
CLSI MIC interpretation R (resistant) [2]: 79.5%
CLSI MIC interpretation S (susceptible) [2]: 10.2%
MIC50 [2]: 8 µg/mL (≈ 26.7 µM)
MIC90 [2]: > 32 µg/mL
CLSI MIC interpretation I (intermediate) [3]: 7.5%
CLSI MIC interpretation R (resistant) [3]: 68.8%
CLSI MIC interpretation S (susceptible) [3]: 23.8%
MIC50 [3]: 8 µg/mL (≈ 26.7 µM)
MIC90 [3]: > 32 µg/mL
CLSI MIC interpretation I (intermediate) [4]: 9.5%
CLSI MIC interpretation R (resistant) [4]: 70.3%
CLSI MIC interpretation S (susceptible) [4]: 20.3%
MIC50 [4]: 4 µg/mL (≈ 13.4 µM)
MIC90 [4]: > 32 µg/mL
CLSI MIC interpretation I (intermediate) [5]: 3.6%
CLSI MIC interpretation R (resistant) [5]: 87.3%
CLSI MIC interpretation S (susceptible) [5]: 9.1%
MIC50 [5]: 32 µg/mL (≈ 107 µM)
MIC90 [5]: > 32 µg/mL
CLSI MIC interpretation I (intermediate) (96 P. aeruginosa): 3.1%
CLSI MIC interpretation R (resistant) (96 P. aeruginosa): 83.3%
CLSI MIC interpretation S (susceptible) (96 P. aeruginosa): 13.5%
MIC50 (96 P. aeruginosa): 16 µg/mL (≈ 53.4 µM)
MIC90 (96 P. aeruginosa): > 32 µg/mL
CLSI MIC interpretation I (intermediate) [6, 19]: 0%
CLSI MIC interpretation R (resistant) [6, 19]: 95.6%
CLSI MIC interpretation S (susceptible) [6, 19]: 4.4%
CLSI MIC interpretation I (intermediate) [6, 13]: 0%
CLSI MIC interpretation R (resistant) [6, 13]: 97.7%
CLSI MIC interpretation S (susceptible) [6, 13]: 2.3%
CLSI MIC interpretation I (intermediate) [6, 14]: 2.6%
CLSI MIC interpretation R (resistant) [6, 14]: 93.4%
CLSI MIC interpretation S (susceptible) [6, 14]: 3.9%
MIC50 [6, 20]: > 32 µg/mL
MIC90 [6, 20]: > 32 µg/mL
MIC50 [6, 15]: > 32 µg/mL
MIC90 [6, 15]: > 32 µg/mL
MIC50 [6, 16]: 32 µg/mL (≈ 107 µM)
MIC90 [6, 16]: > 32 µg/mL
CLSI MIC interpretation I (intermediate) [7]: 10.3%
CLSI MIC interpretation R (resistant) [7]: 84.5%
CLSI MIC interpretation S (susceptible) [7]: 5.2%
MIC50 [7]: 8 µg/mL (≈ 26.7 µM)
MIC90 [7]: > 32 µg/mL
CLSI MIC interpretation I (intermediate) [8]: 9.1%
CLSI MIC interpretation R (resistant) [8]: 81.8%
CLSI MIC interpretation S (susceptible) [8]: 9.1%
MIC50 [8]: 16 µg/mL (≈ 53.4 µM)
MIC90 [8]: > 32 µg/mL
